Experimental data from US20210107942A1, “TISSUE PROTECTIVE PEPTIDES AND PEPTIDE ANALOGS FOR PREVENTING AND TREATING DISEASES AND DISORDERS ASSOCIATED WITH TISSUE DAMAGE” (Araim Pharmaceuticals, Inc., priority 2013, published 2021).

Assays:
[1] = test system: sciatic nerve injury; experiment: Sciatic nerve injury assay (static sciatic index from toe spread); type: in vivo, Sprague-Dawley rats; details: rat, 50 mcg/kg into the caudal vein after nerve stretch injury, toe splaying over next four days, vs PBS; FIG. 1
Description: RYLLEAKEAENITTG (SECS ID NO:1) was tested for tissue protective activity using a sciatic nerve injury assay, Sprague-Dawley rats (250-300 grams) (six per group, including control) were anesthetized using isoflurane. The rat was then placed on a homeothermic blanket to ensure that the core temperature of the rat was maintained at 35-37° C. during the operation. Core temperature was monitored via a rectal probe. The right sciatic nerve of the anesthetized rat was exposed at mid thigh through a quadriceps muscle dissection; a 2 cm incision with a 15 blade scalpel was made through the skin parallel and over the quadriceps muscle and the quadriceps muscle was cut to expose the sciatic nerve using a pair of dissecting scissors. […]
Over the next four days the rear toe splaying of the rats was determined by placing the rat in an acrylic tube with a diameter of 30 cm on the scanning surface of a digital scanner. […] From the scans, the Toe Spread (the distance between the ball of the first toe and the ball of the fifth toe) and the Intermediate Toe Spread (the distance between the ball of the second toe and the ball of the fourth toe were measured. The static sciatic index (SSI) was then computed in accordance with S. Erbayraktar et al., 2003, Proc. Natl. Acad Sci USA 100, 6741-6746 (hereby incorporated by reference in its entirety) and statistical analysis performed.

[2] = test system: histamine induced wheal (edema by intradermal histamine injection); experiment: Histamine induced wheal formation; type: in vivo, Sprague-Dawley rats; details: rat, 30 mcg/kg intravenously shortly after intradermal histamine, area at fifteen minutes, vs placebo; FIG. 2
Description: Under isofiurane anesthesia, 12 Sprague-Dawley rats' abdomens were shaved and depilated. Each rat was then injected intravenously (via internal jugular) with a dilute solution or Evans Blue (30 mg/ml in saline, 1 mg/kg bw). After 5 minutes, 6 small doses of histamine (histamine diphosphate, 20 microliters administered intradermally) in a rectangular pattern on each rat's abdomen. After fifteen minutes, when the wheal reaches its maximum size the wheal is photographed and the blister area was determined by digital planimetry. To test the efficacy of a peptide, RYLLEAKEAENITTG (SEQ ID NO:1) or placebo, was administered to the rats intravenously shortly after the histamine injection, at a dose of 30 mcg/kg.

[3] = test system: cancer cachexia, Yoshida hepatoma AH-130 cells; experiment: Cachexia model (Yoshida hepatoma AH-130 inoculated rats); type: in vivo, Male Wistar Han rats; details: rat, daily 0.17 or 1.7 μg/kg/d, vs saline placebo
Description: Male Wistar Han rats aged 8 weeks with an approximate weight of 200 g were inoculated intraperitoneally with 10^8 Yoshida hepatoma. AH-130 cells. Body weight and body composition were assessed before tumor inoculation and on the day of sacrifice. Quality of life indicators (spontaneous activity, food and water intake) were measured on day 0 and on day 10/11. Tumor cells were counted at the last day of the study. Rats were treated daily with either (1) low dose (0.17 μg/kg/d) RYLLEAKEAENITTG (SEQ ID NO:1), (2) high dose (1.7 μg/kg/d) RYLLEAKEAENITTG (SEQ ID NO:1), or (3) or normal saline (placebo) (n=22). Body composition of animals was analyzed using an EchoMRI-700 (Echo Medical Systems, Houston, Tex., USA). The analysis of the body structures was based on Nuclear Magnetic Resonance. Spontaneous activity was measured by an infrared scanner over 24 hours using Supermex activity monitoring system (Muromachi Kikai Co., LTD., Tokyo, Japan).

With “RYLLEAKEAENITTG (peptide that have tissue protective activity) [tissue protective peptide of 15 amino acids derived from erythropoietin, made by Fmoc solid phase synthesis]” the “sciatic nerve injury (static sciatic index, SSI)” value [1] was “reduces sciatic nerve injury”, the wheal area [2] was “significantly reduced” and the “loss of lean mass” value ([3]; EchoMRI, FIG. 3C) was “reduced loss of lean mass”. For the same sequence, the “physical activity (spontaneous activity)” value ([3]; infrared scanner over 24 hours, FIG. 3D) was “increased physical activity”, the weight loss ([3]; FIG. 3A) was “reduced weight loss” and the epididymal fat ([3]; FIG. 3B) was “preserved epididymal fat”.
